Results: patent US9695330B2, “Liquid composition, pigment dispersion liquid, and aqueous ink composition for ink jet recording” (Seiko Epson Corporation, priority 2015, dated 2017)

Experiment: Distribution coefficient of water-octanol (logP), OECD Test Guideline 107
Format: physicochemical
Details: not given

SMILES	logP (distribution coefficient of water-octanol)	logP
CCCCCC(=O)OCC(O)CO (stereo not shown) [hexanoic acid 2,3-dihydroxypropyl]	0.85	–
CCCCC(CC)COCC(O)CO (stereo not shown) [3-(2-ethylhexyloxy)-1,2-propanediol]	–	2.53
C=C(C)C(=O)OCC(O)CO (stereo not shown) [methacrylic acid 2,3-dihydroxypropyl]	−0.12	–
CCC(=O)OCC(O)CO (stereo not shown) [propionic acid 2,3-dihydroxypropyl]	−0.75	–
CCCC(=O)OCC(O)CO (stereo not shown) [butyric acid 2,3-dihydroxypropyl]	-0.21	–

Same assay, conditions: octanol/water

SMILES	logP
C=CCOCC(O)CO (stereo not shown) [3-allyloxy-1,2-propanediol]	-0.46
CC(C)CCOCC(O)CO (stereo not shown) [3-isopentyloxy-1,2-propanediol]	0.94
CCCCOCC(O)CO (stereo not shown) [3-butoxy-1,2-propanediol]	0.59
CC1CCC(C(C)C)C(OCC(O)CO)C1 (stereo not shown) [3-menthyloxy-1,2-propanediol]	2.6
C#CCOCC(O)CO (stereo not shown) [3-(2-propynyloxy)-1,2-propanediol]	0.75
CCCCCCOCC(O)CO (stereo not shown) [3-hexyloxy-1,2-propanediol]	0.36
CCCCCOCC(O)CO (stereo not shown) [3-pentyloxy-1,2-propanediol]	0.9
OCC(O)COC1CCCCC1 (stereo not shown) [3-cyclohexyloxy-1,2-propanediol]	1
CC(=O)OCC(COC(C)=O)OC(C)=O [glycerol triacetate]	-0.24
COCC(O)CO (stereo not shown) [3-methoxy-1,2-propanediol]	-0.62
CCOCC(O)CO (stereo not shown) [3-ethoxy-1,2-propanediol]	-0.43
